How the values were obtained:
[1] = test system: H9C2 cells; assay: Protective effect on heart cells against t-BHP (LDH release); assay type: cell-based; details: H9C2, t-BHP 400 μM, 2 hours, read-out: EC50 (μM), Cell Protection Effect against t-BHP in Heart Cells
Procedure, shortened: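 H9C2 cells (1.5×10^4/well, cultured 24 h) were pretreated 15–20 min with compound at 0.01–30 μM final, then exposed 2 h to 400 μM t-BHP. LDH in supernatant was measured colorimetrically at 490 nm after 30 min room-temperature reaction; EC50 derived from protection.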

[2] = test system: NIH/3T3 cells; assay: Cell death protective effect in fibroblasts against Erastin, glutamate and RSL3 (LDH); assay type: cell-based, mouse; details: 24 hours
Protocol: In order to identify the protective effect on fibroblasts, NIH/3T3 cells were divided into 96-well plates by 8×10^3 and cultured for 18 to 24 hours. The compounds of Examples were diluted to final concentrations of 0.1 and 1 μM, treated in each well, and incubated for 15 to 20 minutes. Erastin, glutamate, and RSL3 were treated to have final concentrations of 3 μM, 30 mM, and 3 μM, respectively, and cultured for 24 hours. In order to identify the protective effect of each compound, the degree of LDH extracellular secretion was measured using cytotoxicity LDH assay kit [Dojindo; CK12]. Briefly, at the time when the treatment of the cells with Erastin, glutamate, and RSL3 for 24 hours is completed, the supernatants containing the cells are taken by 70 μL and transferred to a new 96-well plate. The assay buffer included in the kit is added in an amount of 70 μL/well (the same amount as the sample) thereto, and then the plate is wrapped with a foil and the reaction is performed at room temperature for 15 minutes. After observing the changed color of the sample, the stop solution was added in an amount of 35 μL/well thereto, and then the 00 inhibition value was calculated by measuring the absorbance value at a wavelength of 490 nm using an iD3 spectrophotometer.

[3] = NIH/3T3, Erastin 3 μM, compound 0.1 μM
[4] = NIH/3T3, Erastin 3 μM, compound 1.0 μM
[5] = NIH/3T3, Glutamate 30 mM, compound 0.1 μM
[6] = NIH/3T3, Glutamate 30 mM, compound 1.0 μM
[7] = NIH/3T3, RSL3 3 μM, compound 0.1 μM
[8] = NIH/3T3, RSL3 3 μM, compound 1.0 μM

EC50 [1] | SMILES | inhibition (%) [2, 3] | inhibition (%) [2, 4] | inhibition (%) [2, 5] | inhibition (%) [2, 6] | inhibition (%) [2, 7] | inhibition (%) [2, 8]
≤ 0.3 µM | COCCOCCOCc1cc(NC2CCCC2)c2[nH]c(-c3ccccc3)cc2c1 [Example 39, N-cyclopentyl-5-[2-(2-methoxyethoxy)ethoxymethyl]-2-phenyl-1H-indol-7-amine] | 99% | 100% | 99% | 100% | 100% | 100%
≤ 0.3 µM | COCCOCc1cc(NC2CCOCC2)c2[nH]c(-c3ccccc3)cc2c1 [Example 1, 5-(2-methoxyethoxymethyl)-2-phenyl-N-tetrahydropyran-4-yl-1H-indol-7-amine] | 99% | 100% | 100% | 100% | 100% | 100%
≤ 0.3 µM | COCCOCc1cc(NC2CCN(C(C)=O)CC2)c2[nH]c(-c3ccccc3)cc2c1 [Example 30, 1-[4-[[5-(2-methoxyethoxymethyl)-2-phenyl-1H-indol-7-yl]amino]piperidyl]-1-ethanone] | 6% | 100% | 100% | 100% | 100% | 100%
≤ 0.3 µM | CCOCCOCc1cc(NC2CCCC2)c2[nH]c(-c3ccccc3)cc2c1 [Example 36, N-cyclopentyl-5-(2-ethoxyethoxymethyl)-2-phenyl-1H-indol-7-amine] | 99% | 100% | 100% | 100% | 100% | 100%
≤ 0.3 µM | COCCOCc1cc(NC2CCNCC2)c2[nH]c(-c3ccccc3)cc2c1 [Example 64, 5-((2-methoxyethoxy)methyl)-2-phenyl-N-(piperidin-4-yl)-1H-indol-7-amine] | 99% | 100% | 99% | 100% | 100% | 100%

Second part, the compound before the results:

SMILES | EC50 [1] | inhibition (%) [2, 3] | inhibition (%) [2, 4] | inhibition (%) [2, 5] | inhibition (%) [2, 6] | inhibition (%) [2, 7] | inhibition (%) [2, 8]
COCCOCc1cc(NCC2CCOCC2)c2[nH]c(-c3ccccc3)cc2c1 [Example 4, 5-2(methoxyethoxymethyl)-2-phenyl-N-(tetrahydropyran-4-ylmethyl)-1H-indol-7-amine] | ≤ 0.3 µM | 99% | 99% | 100% | 100% | 100% | 100%
CCOC(=O)c1ccc(NC2CCCCC2)c(N)c1 [Ferrostatin-1, reference compound] |  | 17% | 99% | 97% | 97% | 100% | 100%
COCCOCc1cc(NC2CCOCC2)c2[nH]cc(C)c2c1 [Example 50, 5-(2-methoxyethoxymethyl)-3-methyl-N-tetrahydropyran-4-yl-1H-indol-7-amine] | > 1 µM | 0% | 8% | 99% | 100% | 100% | 100%
COCCOCc1cc(NCc2ccncc2)c2[nH]c(-c3ccccc3)cc2c1 [Example 45, 5-(2-methoxyethoxymethyl)-2-phenyl-N-(4-pyridylmethyl)-1H-indol-7-amine] | ≤ 0.3 µM | 100% | 100% | 0% | 97% | 0% | 100%

From patent US20250122155A1, “NOVEL INDOLE DERIVATIVE, PHARMACEUTICAL COMPOSITION COMPRISING SAME, AND USE THEREOF” (MITOIMMUNE THERAPEUTICS INC., priority 2021, published 2025)
